{"source": "paper PMC7004565", "about": "“Nucleotide inhibition of the pancreatic ATP-sensitive K^+ channel explored with patch-clamp fluorometry” (eLife, 2020)", "key": {"Kir6.2-GFP + SUR1 [1]": {"molecular_target": "T1, Kir6.2-GFP + SUR1 (Homo sapiens, UniProt Q14654)", "T1 sequence (Q14654 whole entry)": "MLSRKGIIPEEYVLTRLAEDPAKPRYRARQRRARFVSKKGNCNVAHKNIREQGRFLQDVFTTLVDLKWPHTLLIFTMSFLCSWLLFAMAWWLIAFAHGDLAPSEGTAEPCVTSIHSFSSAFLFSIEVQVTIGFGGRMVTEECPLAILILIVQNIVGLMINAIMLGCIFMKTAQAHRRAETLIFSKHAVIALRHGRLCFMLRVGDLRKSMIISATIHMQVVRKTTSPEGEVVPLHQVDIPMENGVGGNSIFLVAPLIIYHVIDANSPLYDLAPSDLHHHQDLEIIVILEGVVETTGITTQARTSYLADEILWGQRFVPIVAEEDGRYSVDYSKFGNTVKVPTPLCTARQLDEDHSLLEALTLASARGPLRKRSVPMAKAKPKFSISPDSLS", "T1 sequence (Q09428 whole entry partner)": "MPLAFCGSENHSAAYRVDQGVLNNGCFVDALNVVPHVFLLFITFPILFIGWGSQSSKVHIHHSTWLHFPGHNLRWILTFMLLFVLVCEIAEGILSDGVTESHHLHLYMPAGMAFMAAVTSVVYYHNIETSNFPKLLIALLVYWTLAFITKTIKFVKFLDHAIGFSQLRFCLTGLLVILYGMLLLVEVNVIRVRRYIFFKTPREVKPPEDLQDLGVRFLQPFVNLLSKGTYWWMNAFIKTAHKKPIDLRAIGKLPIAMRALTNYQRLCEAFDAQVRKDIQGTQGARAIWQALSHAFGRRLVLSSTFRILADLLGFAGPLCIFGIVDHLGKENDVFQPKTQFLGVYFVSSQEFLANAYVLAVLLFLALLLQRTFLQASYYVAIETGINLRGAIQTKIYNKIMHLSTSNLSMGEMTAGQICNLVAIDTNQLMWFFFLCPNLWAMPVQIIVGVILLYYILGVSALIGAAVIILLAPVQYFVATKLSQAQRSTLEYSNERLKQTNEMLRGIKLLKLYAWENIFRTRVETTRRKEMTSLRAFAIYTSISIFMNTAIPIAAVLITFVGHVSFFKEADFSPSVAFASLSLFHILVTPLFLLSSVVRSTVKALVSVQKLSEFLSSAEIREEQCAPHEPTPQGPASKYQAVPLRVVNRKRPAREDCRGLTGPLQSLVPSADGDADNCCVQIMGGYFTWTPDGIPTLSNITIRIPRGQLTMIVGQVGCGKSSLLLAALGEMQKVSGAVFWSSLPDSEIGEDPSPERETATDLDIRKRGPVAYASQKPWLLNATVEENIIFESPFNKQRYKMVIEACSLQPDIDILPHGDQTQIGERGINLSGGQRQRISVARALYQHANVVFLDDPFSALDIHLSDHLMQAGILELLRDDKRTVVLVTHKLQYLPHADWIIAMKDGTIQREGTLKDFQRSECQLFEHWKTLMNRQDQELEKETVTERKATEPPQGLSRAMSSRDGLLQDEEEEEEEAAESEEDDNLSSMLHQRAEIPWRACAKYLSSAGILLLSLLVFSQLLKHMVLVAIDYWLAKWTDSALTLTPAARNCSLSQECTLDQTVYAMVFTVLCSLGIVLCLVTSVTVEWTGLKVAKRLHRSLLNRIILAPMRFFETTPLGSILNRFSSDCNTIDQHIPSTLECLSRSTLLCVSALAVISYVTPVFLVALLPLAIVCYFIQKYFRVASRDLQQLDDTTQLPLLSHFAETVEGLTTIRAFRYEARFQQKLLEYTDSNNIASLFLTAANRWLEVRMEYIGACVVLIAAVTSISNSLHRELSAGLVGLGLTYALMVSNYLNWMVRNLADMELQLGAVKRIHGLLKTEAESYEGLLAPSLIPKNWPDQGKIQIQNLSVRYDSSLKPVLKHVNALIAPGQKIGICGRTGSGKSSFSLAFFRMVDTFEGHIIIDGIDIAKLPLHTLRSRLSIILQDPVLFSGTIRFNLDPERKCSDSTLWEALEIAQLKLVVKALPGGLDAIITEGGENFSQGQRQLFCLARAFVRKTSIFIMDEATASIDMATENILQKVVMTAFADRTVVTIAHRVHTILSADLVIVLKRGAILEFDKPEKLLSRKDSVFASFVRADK", "test": "Bayesian MWC-type model fits to combined patch-clamp fluorometry data", "type": "biochemical", "design": "full length, fully ANAP-labelled Kir6.2 protein was produced and successfully trafficked to the membrane in the presence of SUR1; expressed in transfected cells; host or cells: HEK-293T", "source_text": "Our simultaneous binding and current measurements were well fit with a Monod-Wyman-Changeux (MWC)-type model (Figure 2D,E; [Monod et al., 1965]) which has been previously proposed to explain KATP channel inhibition ([Enkvetchakul and Nichols, 2003]; [Craig et al., 2008]; [Vedovato et al., 2015]). In our MWC-type model, each ligand binding event ( KA ) is independent and each bound ligand favours the closed state by the same factor ( D ). Simultaneous measurement of binding (fluorescence) and gating (current) allowed us to obtain well constrained fits to our model. To obtain free parameter ( L , KA , D ) estimates and verify that each parameter was well and uniquely determined, we employed a Bayesian Markov chain Monte Carlo (MCMC) method previously employed by [Hines et al. (2014)]. Using this approach, we constructed posterior probability distributions for the free parameters of our MWC-type model (Figure 2F, Table 3). […] Our estimate of L was quite low and broadly distributed. We repeated our fits with L fixed to a value consistent with previous single channel measurements (0.8, Popen=0.45; [John et al., 1998]; [Enkvetchakul et al., 2000]; [Ribalet et al., 2006]). This had only a very small effect on our estimates of D and KA (Figure 2—figure supplement 1). The broad distribution of L in our fit may represent current rundown which occurs during our patch-clamp recordings and is expected to affect the open-closed equilibrium.\nIn addition to the full MWC-type model we considered alternate models (Figure 2—figure supplement 2). These included a model in which only the first binding event influences the open-closed equilibrium of the channel (single-binding model; Figure 2—figure supplement 2B, Table 3), and an MWC-style model with an additional parameter C to allow for direct negative cooperativity between binding sites (negative cooperativity model; Figure 2—figure supplement 2C, Table 3). The single-binding model yielded very similar parameter estimates to our full MWC-type model (Figure 2—figure supplement 2D, Table 3). This is a consequence of D being so low that even in the MWC-type model most channels are closed when only a single nucleotide is bound. The cooperative model improved our fits, but not enough to justify the inclusion of an additional free parameter (see Discussion).\nThe MWC-type models considered (Figure 2 and Figure 2—figure supplement 2) were formulated as follows:(3) F/Fmax=KA[TNPATP](1+KA[TNPATP])^3+LDKA[TNPATP](1+DKA[TNPATP])^3/(1+KA[TNPATP])^4+L(1+DKA[TNPATP])^4 (4) open channels/total channels=L(1+DKA[TNPATP])^4/(1+KA[TNPATP])^4+L(1+DKA[TNPATP])^4\nThe first was similar to the MWC-type model, except that the channels close after one molecule of TNP-ATP binding with subsequent binding events having no effect.(7) F/Fmax=LDKA[TNPATP](1+3KA[TNPATP]+3KA2[TNPATP]^2+KA3[TNPATP]^3)+KA[TNPATP](1+KA[TNPATP])^3/L(1+4DKA[TNPATP]+6DKA2[TNPATP]^2+4DKA3[TNPATP]^3+DKA4[TNPATP]^4)+(1+KA[TNPATP])^4 (8) I/Imax=L(1+4DKA[TNPATP]+6DKA2[TNPATP]^2+4DKA3[TNPATP]^3+DKA4[TNPATP]^4)/L(1+4DKA[TNPATP]+6DKA2[TNPATP]^2+4DKA3[TNPATP]^3+DKA4[TNPATP]^4)+(1+KA[TNPATP])^4⋅1+L/L\nThe second alternate model was the same as the full MWC model, but with an additional term C describing binding cooperativity between Kir6.2 subunits.(9) F/Fmax=LDKA[TNPATP](1+3CDKA[TNPATP]+3C^2D^2KA2[TNPATP]^2+C^3D^3KA3[TNPATP]^3)+KA[TNPATP](1+3CKA[TNPATP])+3C^2KA2[TNPATP]^2+C^3KA3[TNPATP]^3)/L(1+4DKA[TNPATP]+6CD^2KA2[TNPATP]^2+4C^2D^3KA3[TNPATP]^3+C^3D^4KA4[TNPATP]^4)+1+4KA[TNPATP]+6CKA2[TNPATP]^2+4C^2KA3[TNPATP]^3+C^3KA4[TNPATP]^4 (10) I/Imax=L(1+4DKA[TNPATP]+6CD^2KA2[TNPATP]^2+4C^2D^3KA3[TNPATP]^3+C^3D^4KA4[TNPATP]^4)/L(1+4DKA[TNPATP]+6CD^2KA2[TNPATP]^2+4C^2D^3KA3[TNPATP]^3+C^3D^4KA4[TNPATP]^4)+1+4KA[TNPATP]+6C^2KA2[TNPATP]^2+4C^2KA3[TNPATP]^3+C^3KA4[TNPATP]^4⋅1+L/L […]"}, "Kir6.2-GFP + SUR1 [2]": {"molecular_target": "T1, Kir6.2-GFP + SUR1", "test": "Current inhibition in excised inside-out patches (patch-clamp fluorometry)", "type": "biochemical", "design": "full length, fully ANAP-labelled Kir6.2 protein was produced and successfully trafficked to the membrane in the presence of SUR1; expressed in transfected cells; host or cells: HEK-293T", "conditions": "excised inside-out patches, Mg2+-free, Hill fit", "experimental": "Currents were measured from patches from cells expressing KATP that were excised in the absence of Mg^2+. Under such conditions, nucleotides can bind to both sites on SUR1, but no activation occurs, allowing inhibitory currents to be measured in isolation ([Gribble et al., 1998]; [Ueda et al., 1999]; [Puljung et al., 2019]).\nCurrents were measured as described above."}, "[3]": {"conditions": "Full MWC model, median estimate"}, "[4]": {"conditions": "Single-site (single-binding) model"}}, "note": "Where “and” joins values, the source holds several entries; their conditions need not be identical. Equal entries are not always repeated. Where two headings read alike, the source gives them in different places.", "data": [{"smiles": "Nc1ncnc2c1ncn2[C@@H]1O[C@H](COP(=O)(O)OP(=O)(O)OP(=O)(O)O)[C@H]2OC3(O[C@H]21)C([N+](=O)[O-])=CC(=[N+]([O-])[O-])C=C3[N+](=O)[O-]", "note": "(stereo partly drawn) [TNP-ATP, trinitrophenyl-ATP]", "values": [{"measurement": "KA", "setting": "Kir6.2-GFP + SUR1 [1]; Full MWC model, PCF, inhibitory site on Kir6.2", "result": 21000, "unit": "M⁻¹"}, {"measurement": "Kd", "setting": "Kir6.2-GFP + SUR1 [1]; Full MWC model, from KA, read-out: KD", "result": "47.9 µM and 48 µM"}, {"measurement": "L", "setting": "Kir6.2-GFP + SUR1 [1]; Full MWC model, linear value", "result": 0.09}, {"measurement": "D (factor by which nucleotide binding favours channel closure)", "setting": "Kir6.2-GFP + SUR1 [1]; [3]", "result": 0.04}, {"measurement": "L (unliganded open-closed equilibrium constant)", "setting": "Kir6.2-GFP + SUR1 [1]; [3]", "result": "−1.05", "unit": "log10"}, {"measurement": "Popen", "setting": "Kir6.2-GFP + SUR1 [1]; Full MWC model, unliganded, from L", "result": 0.08}, {"measurement": "C (binding cooperativity between Kir6.2 subunits)", "setting": "Kir6.2-GFP + SUR1 [1]; Negative cooperativity model", "result": 0.17}, {"measurement": "D (factor by which nucleotide binding favours channel closure)", "setting": "Kir6.2-GFP + SUR1 [1]; Negative cooperativity model", "result": 0.15}, {"measurement": "L (unliganded open-closed equilibrium constant)", "setting": "Kir6.2-GFP + SUR1 [1]; Negative cooperativity model", "result": "−0.42", "unit": "log10"}, {"measurement": "Kd", "setting": "Kir6.2-GFP + SUR1 [1]; Negative cooperativity model, read-out: KA (intrinsic binding affinity to the closed state) (converted)", "result": 15.1, "unit": "µM"}, {"measurement": "D (factor by which nucleotide binding favours channel closure)", "setting": "Kir6.2-GFP + SUR1 [1]; [4]", "result": 0.05}, {"measurement": "L (unliganded open-closed equilibrium constant)", "setting": "Kir6.2-GFP + SUR1 [1]; [4]", "result": "−1.06", "unit": "log10"}, {"measurement": "Kd", "setting": "Kir6.2-GFP + SUR1 [1]; Single-site (single-binding) model, read-out: KA (intrinsic binding affinity to the closed state) (converted)", "result": 46.8, "unit": "µM"}, {"measurement": "IC50", "setting": "Kir6.2-GFP + SUR1 [2]; IC50 current inhibition", "result": "6.2 µM and 6.23 µM and 6.17 µM"}, {"measurement": "h (Hill coefficient) current inhibition", "setting": "Kir6.2-GFP + SUR1 [2]", "result": 0.92}]}]}
